Laboratory results as given in US9096643B2, “Cell-protective peptides and uses thereof” (priority 2010, dated 2015).
Values joined by “and” are separate entries in the source; they are usually repeats but may differ in a detail not shown here. Equal values may be shown once.

Key:
Type in all cases: cell-based
human iPS cells BJ1D [1] = assay: BrdU assay of iPS cell proliferation; conditions: 50 μM, 5 passages, FIG. 16
Protocol: (§1) After 5 passages in treatment, human iPS cells were passaged as described above in the presence of 50 μM QHREDGS, 50 μM DGQESHR (Biomatik), or PBS (Lonza) onto MEF plates and grown for 3 days. Cultures were pulsed for 1 hr with 10 μM BrdU (Sigma) and immediately analyzed for immunohistochemistry (see below). Ki67 (Millipore, 1:300) co-staining was used to differentiate MEFs from human iPS cells. All samples were counterstained with DAPI (300 nM, Sigma).

human iPS cells 0901B [2] = assay: BrdU assay of iPS cell proliferation; conditions: 50 μM, 5 passages, FIG. 17
Protocol: as §1

human iPS cells BJ1D [3] = assay: Pluripotency markers Oct4 and SSEA4 by FACS; conditions: 50 μM, five passages, FIG. 14
Protocol: (§2) Analytical flow cytometry was performed on a FACSCalibur flow cytometer (BD Biosciences) as described in Chiang et al. Acta Biomater. 6, 1904-1916 (2010), with an additional permeabilization step with 0.25% Triton-X (Sigma) for 10 min at 4° C. Oct4 (Millipore), SSEA-4 (Developmental Studies Hybridoma Bank) and Ki67 (Millipore) and all secondary antibodies (Jackson ImmunoResearch) were used at 1:100.

human iPS cells 0901B [4] = assay: Pluripotency markers Oct4 and SSEA4 by FACS; conditions: 50 μM, five passages, FIG. 15
Protocol: as §2

human iPS cells BJ1D [5] = assay: iPS colony formation / cloning efficiency after complete dissociation at clonal density
Protocol: (§3) The human iPS cells (BJ1D and 0901B) were obtained from the Ontario iPSC Facility and used following the hiPS cell research guidelines of the University of Toronto as described by Hotta et al. Nat. Protoc. 4, 1828-1844 (2009)), unless specified otherwise. Cells were cultured on a feeder layer of MEF cells (Mount Sinai Hospital Toronto, inactivated with 10 μg/ml mitomycin C and seeded at 1.8×10^5 per 3.5 cm dish). For single cell cultures, hiPS cell colonies were dissociated in 0.25% Trypsin-EDTA (Invitrogen) for 5 min, followed by trituration with a pipette. To ensure a single-cell suspension, the dissociated cells were passed through a 40 μm cell strainer (BD Falcon) and seeded onto MEF plates at 10 cells/ml, 10 cm plates. Cells were allowed to grow for 7 days and the total number of colonies was counted. In the treated groups, QHREDGS (Biomatik) or DGQESHR (Biomatik) dissolved in PBS (Lonza), were added at the reported concentrations to culture media at the onset of the first treatment passage and replenished with each media change. Media was changed by 100% every day. Peptides and controls were included during dissociation and passaging. Cells were analyzed after 5 passages in continuous treatment with 50 μM QHREDGS, 50 μM DGQESHR, or PBS, unless specified otherwise.
(§4) iPS cells, BJ1D or 0901B were treated with 50 μM of QHREDGS peptide, or 50 μM DGQESHR scrambled peptide in PBS with a PBS treated control for five passages as a preparation for passage by trypsin. Cells were trypsinized and plated at a clonal density of 10 cells/ml for one week and the number of colonies were counted.
(§5) After 5 passages in pre-treatment with 50 μM QHREDGS, or controls and complete dissociation (trypsinized), human iPS cells, BJ1D or 0901B cells, were plated on a mouse embryonic fibroblast (MEF) feeder layer at low density (100 cells/plate, 10 cm plate) in maintenance medium containing 50 μM QHREDGS, PBS, or 50 μM DGQESHR scrambled peptide. After one-week in culture, untreated or DGQESHR (scrambled peptide) treated groups generated few colonies, whereas QHREDGS treated groups for both BJ1D or 0901B cells produced many large colonies (˜15 times more than the controls) (see FIG. 13A/B, respectively). The colonies were positive for Oct4, a marker for the undifferentiated state. The cloning efficiency, based on ratio of Oct4+ colonies formed per initially seeded human iPS cells, was 27+/−7.1% and 2.5+/−0.6% for BJ1D and 48+/−9.4% and 22.3+/−1.9 for 0901B in the presence and absence of QHREDGS, respectively. […] Thus, treatment with QHREDGS supports single-cell culture of human iPS cells through the promotion of colony formation.

human iPS cells 0901B [6] = assay: as above
Protocol: as §3, §4, §5

human iPS cells = assay: iPS cell colony number following passage; conditions: vs PBS control, FIG. 11
Protocol: as §3
To determine the optimal concentration of QHREDGS for iPSC expansion, a dose-response experiment was performed. Cells were treated with 5 μM, 50 μM, or 500 μM of QHREDGS peptide, or 500 μM scrambled peptide (DGQESHR) in PBS with a PBS treated control for five passages and stained for CFDA-Live/PI-Dead. Live cells were counted using the cell counter plug in for ImageJ.

[7] = system: Human ESC-derived cardiac cells (Hes2); assay: TUNEL assay with cTnT co-localization of human ESC-derived cardiac cells; conditions: 50 μM, FIG. 21
Protocol: Human ESC-derived cardiac cell culture, were derived from Day 20 EBs, consisting of greater than 50% cardiomyocytes obtained by directed differentiation of human ES (Hes2) cells as described by Yang et al. (Nature 453, 524-528 (2008)). EBs were dissociated using Collagenase I (Invitrogen) for 2 hrs and 0.05% Trypsin-EDTA (Invitrogen) for 5 min and plated at 40000 cells/cm^2 onto 0.2% gelatin-coated plates in Stempro 34 medium supplemented with VEGF (10 ng/ml) and DKK1 (150 ng/ml). Cells were cultured in the presence of 50 μM QHREDGS, 50 μM DGQESHR (Biomatik) or PBS until they formed a beating monolayer, around 10 days. Peptides were replenished during media changes every 3 days. 100 μM H2O2 (Sigma, dissolved in PBS) was added to culture media for 10 min, washed, and analyzed immediately for CFDA-Live/PI-Dead. Live cells were counted using the cell counter plug in for ImageJ. 0.5 μM or 2.5 μM taxol (Sigma, dissolved in DMSO) was added to culture media for 24 hrs, and the extent of apoptosis was analyzed immediately using the Apo-ONE Homogeneous Caspase Assay (Promega), or TUNEL assay (Roche) as described above. A PBS control was used for H2O2 and DMSO control was used for taxol.

[8] = 50 μM, 100 cells/plate on MEF, one week
[9] = in the presence of 50 μM QHREDGS

QHREDGS (angiopoietin 1 peptide)
rate of proliferation (BrdU incorporation, 1 hr pulse) (human iPS cells BJ1D [1]): remained the same | rate of proliferation (BrdU incorporation, 1 hr pulse) (human iPS cells 0901B [2]): remained the same | expression of Oct4 and SSEA4 (FACS) (human iPS cells BJ1D [3]): comparable to both PBS and DGQESHR scrambled peptide controls | expression of Oct4 and SSEA4 (FACS) (human iPS cells 0901B [4]): comparable to both PBS and DGQESHR scrambled peptide controls | colonies relative to controls (human iPS cells BJ1D [5]; [8]): ~15 times more than the controls | number of colonies (human iPS cells BJ1D [5]; 50 μM, trypsinized, clonal density, one week, FIG. 13A): increased significantly | cloning efficiency (Oct4+ colonies per initially seeded cells) (human iPS cells BJ1D [5]; [9]): 27+/−7.1% and 27% | colonies relative to controls (human iPS cells 0901B [6]; [8]): ~15 times more than the controls | number of colonies (human iPS cells 0901B [6]; 50 μM, trypsinized, clonal density, one week, FIG. 13B): increased significantly | cloning efficiency (Oct4+ colonies per initially seeded cells) (human iPS cells 0901B [6]; [9]): 48+/−9.4% and 48% | increase in colony number (human iPS cells; 50 μM): 14.3% | increase in colony number (human iPS cells; 50 μM, on average): greater than 10 colonies/well | increase in colony number (human iPS cells; 500 μM): 40% | reduction of basal apoptosis in cardiomyocytes (TUNEL/cTnT) [7]: greater than 10 fold
